{"source": "patent US10520514B2", "about": "“Method for monitoring post-translational modification of protein” (KOREA INSTITUTE OF SCIENCE AND TECHNOLOGY, priority 2017, dated 2019)", "assay_type_in_all_cases": "biochemical", "key": {"tau protein": {"test_system": "tau protein", "assay": "Ratio of impedance change due to phosphorylated tau (P) and O-glycosylated tau (O)", "conditions": "100 uM Thiamet G; tau protein 0.5 pg/ml", "method": "(§1) The samples thus obtained were measured for impedance using a biosensor array (10×10 or 20×20) with an electrode interval of 0.7 μm. […] In addition, impedance change rate is a value (%) obtained by dividing a difference between the impedance Zneg of Neg and the impedance BAT or BAT2 of divided by the impedance Zneg of Neg and multiplied by 100. Impedance change rate difference is defined as a value obtained by subtracting the impedance change rate of BAT from the impedance change rate of BAT2."}, "O-glycosylated tau": {"test_system": "O-glycosylated tau", "assay": "Nanogap biosensor impedance of microbeads bound to tau protein, reacted with O-GlcNAc (CTD110.6) antibody", "method": "(§2) A tosylate-treated magnetic bead (Thermo Fisher, Dynabead M-280, diameter 2.8 μm, 14203) and a tau protein binding antibody (abcam, Anti-Tau (Phosphor S262) antibody, ab64193, 50 μl/250 μl) are inserted in a 0.1 M PBS buffer and placed in a 37° C. incubator, and incubated on a roll mixer for 24 hours.\n(§3) Next, the magnetic bead bound to the tau protein binding antibody are washed with 0.4% Block ACE (AbD serotec, USA) and blocked with 0.2 M tris buffer. 30 mg/mL of the microbead solution was stored in PBST (Phosphate Buffered Saline with Tween-20, 0.01% Tween-20) containing 0.4% Block Ace.\n(§4) The tau protein at a concentration of 5250 ng/mL was diluted 1/10 in various concentrations (0.5 fg/mL to 50 pg/mL) using 0.1% PBST. Tau protein was treated with Thiamet G, an O-glycosylation drug, if necessary.\n(§5) The microbead bound to the tau protein binding antibody were diluted to 300 μl/ml using 0.1% PBST, and the tau protein (diluent) and the microbead (diluent) were mixed at a concentration of 1:2 and reacted in a refrigerator for 22 hours.\n(§6) Next, the microbead bound to the tau protein is washed twice with 0.1% PBST and washed twice with PBS (Phosphate Buffered Saline). Thereafter, it is diluted to a bead concentration of 60 μl/ml using PBS.\n(§7) A microbead (300 μl/ml) bound to tau protein were prepared in the same manner as in Synthesis Example 1.\nThe microbead is mixed with 10.4 ng of an antibody capable of binding O-glycosylated proteins (Cell signaling, O-GlcNAc (CTD110.6) Mouse mAB, #9875) and reacted in a refrigerator for 22 hours.\nThe microbead bound to the O-glycosylated tau-binding antibody is washed twice with 0.1% PBST, washed twice with PBS, and diluted to a bead concentration of 60 μl/ml using PBS.\nas §1"}, "phosphorylated tau": {"test_system": "phosphorylated tau", "assay": "Nanogap biosensor impedance of microbeads bound to tau protein, reacted with AT8 antibody", "conditions": "100 uM Thiamet G, tau protein 0.5 pg/ml", "method": "as §2, §3, §4, §5, §6, §7\nThe microbead is mixed with 10 ng of an antibody capable of binding to phosphorylated tau protein (Thermo Fisher, Phospho-Tau (Ser202, Thr205) Antibody (AT8), MN1020) and reacted in a refrigerator for 22 hours.\nThe microbead bound to the phosphorylated tau-binding antibody is washed twice with 0.1% PBST, washed twice with PBS, and diluted to a bead concentration of 60 μl/ml using PBS.\nas §1, with “Impedance change rate difference is defined as a value obtained by subtracting the impedance change rate of BAT from the impedance change rate of BAT2.” left out"}, "[1]": {"conditions": "10 uM Thiamet G, tau protein 0.5 pg/ml, O-GlcNAc"}, "[2]": {"conditions": "30 uM Thiamet G, tau protein 0.5 pg/ml, O-GlcNAc"}, "[3]": {"conditions": "100 uM Thiamet G, tau protein 0.5 pg/ml, O-GlcNAc"}}}
{"smiles": "CCN=C1N[C@@H]2[C@@H](O)[C@H](O)[C@@H](CO)O[C@@H]2S1", "note": "[Thiamet G]", "values": [{"measurement": "P/O", "setting": "tau protein", "result": 0.111}, {"measurement": "BAT-BAT2", "setting": "O-glycosylated tau; [1]", "result": 4.3, "unit": "MΩ"}, {"measurement": "Impedance change rate difference", "setting": "O-glycosylated tau; [1]", "result": 1.62, "unit": "%"}, {"measurement": "BAT-BAT2", "setting": "O-glycosylated tau; [2]", "result": 11.6, "unit": "MΩ"}, {"measurement": "Impedance change rate difference", "setting": "O-glycosylated tau; [2]", "result": 4.39, "unit": "%"}, {"measurement": "BAT-BAT2", "setting": "O-glycosylated tau; [3]", "result": 30.5, "unit": "MΩ"}, {"measurement": "Impedance change rate difference", "setting": "O-glycosylated tau; [3]", "result": 11.54, "unit": "%"}, {"measurement": "O ((BAT-BAT2)/Neg)", "setting": "O-glycosylated tau; [3]", "result": 0.1154}, {"measurement": "Impedance change rate difference", "setting": "O-glycosylated tau; 100 uM Thiamet G, tau protein 0.5 fg/ml", "result": 7.5, "unit": "%"}, {"measurement": "Impedance change rate difference", "setting": "O-glycosylated tau; 100 uM Thiamet G, tau protein 5.2 fg/ml", "result": 20.4, "unit": "%"}, {"measurement": "Impedance change rate difference", "setting": "O-glycosylated tau; 100 uM Thiamet G, tau protein 52.4 fg/ml", "result": 28.9, "unit": "%"}, {"measurement": "Impedance change rate difference", "setting": "O-glycosylated tau; 100 uM Thiamet G, tau protein 524 fg/ml", "result": 32.8, "unit": "%"}, {"measurement": "Impedance change rate difference for the microbead combined with O-glycosylated antibody", "setting": "O-glycosylated tau; when the concentration of Thiamet G was increased (Tables 1-1 and 1-2)", "result": "greatly increased"}, {"measurement": "BAT-BAT2", "setting": "phosphorylated tau", "result": 0.59, "unit": "MΩ"}, {"measurement": "Impedance change rate difference", "setting": "phosphorylated tau", "result": 1.28, "unit": "%"}, {"measurement": "P ((BAT2-BAT)/Neg)", "setting": "phosphorylated tau", "result": 0.0128}]}
